According to patent publication US6492137B1, “Response element compositions and assays employing same” (The Salk Institute for Biological Studies, priority 1989, dated 2002):

Molecular target: T1, VDR (Homo sapiens, UniProt P11473)
T1 sequence (P11473 1-427): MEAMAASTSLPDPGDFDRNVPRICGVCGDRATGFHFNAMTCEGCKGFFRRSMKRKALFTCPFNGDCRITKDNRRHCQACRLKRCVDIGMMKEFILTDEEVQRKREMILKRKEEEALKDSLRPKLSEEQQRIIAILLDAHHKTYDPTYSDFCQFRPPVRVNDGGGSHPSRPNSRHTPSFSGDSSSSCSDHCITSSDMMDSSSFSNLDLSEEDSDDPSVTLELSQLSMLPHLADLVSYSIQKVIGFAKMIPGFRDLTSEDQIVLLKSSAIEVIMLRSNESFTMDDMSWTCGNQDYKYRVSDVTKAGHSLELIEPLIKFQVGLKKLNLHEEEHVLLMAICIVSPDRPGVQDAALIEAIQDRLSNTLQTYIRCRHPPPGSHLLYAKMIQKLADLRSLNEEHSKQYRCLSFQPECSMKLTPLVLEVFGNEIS
Experiment: ΔSV-CAT reporter cotransfection assay in CV-1 cells with VDR expression plasmid, ±VD3
Format: cell-based
Parameters: expressed in transfected cells; host or cells: CV-1 (monkey kidney)
Conditions: VD3 100 nM
Text: Receptor expression plasmids used in the following cotransfection assays have been described previously (pRShTRβ [see Thompson, et al., Proc. Natl. Acad. Sci. U.S.A. 86: 3494-3498 (1989)]; pRShRARα [see Giguere, et al., Nature 330: 624-629 (1987)]; pRShRARβ and pRshRARγ [see Ishikawa, et al., Mol. Endocrinol, 4: 837-844 (1990)]; and pRShVDR, [Schule, et al., Cell 61: 497-504 (1990)]. A basal reporter plasmid ΔSV-CAT was constructed by replacing the TK promoter in TK-CAT [Damm, et al., Nature 339: 593-597 (1989)] with the SphI-HindIII fragment of the SV40 early promoter. All of the recombinant CAT reporter plasmids used herein harbor a single copy of the indicated oligonucleotides at the unique HindIII site upstream of the SV40 promoter. Identity of the inserted oligonucleotides was confirmed by sequencing. To improve production of receptor proteins in COS cells, a new eukaryotic expression vector pCMX was prepared by modifying the plasmid CDM8 [Seed, B., Nature 329: 840-842 (1987)]. The CDM8 was cut with MluI and StuI in order to release the DNA fragment encoding the CMV/T7 promoter, SV40 small t intron/poly A signal, polyoma virus enhancer/origin, and SV40 enhancer/origin. The resulting fragment was ligated to a larger fragment of PvuII-digested PUC19. An internal deletion was introduced between unique BamHI and BclI sites present in the DCM8 portion. […]

Row | Substance | vitamin D3 response (in words)
1 | GDR-3: identical to DR-3 except half-site changed to AGAACA, a GRE half-site (SEQ ID NO:26) (AGCTTCAGAACAAGGAGAACAGAGAGCT; DNA, backbone not given here; double-stranded DNA response element with agct overhangs, cloned into reporter) | completely inactive
2 | GDR-4: identical to DR-4 except half-site changed to AGAACA, a GRE half-site (SEQ ID NO:28) (AGCTTCAGAACACAGGAGAACAGAGAGCT; DNA, backbone not given here; double-stranded DNA response element with agct overhangs, cloned into reporter) | completely inactive
